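How tested: cells in 96-well plates exposed to compound for 48 hours at five concentrations. Abbreviation: GI50, concentration required for 50% inhibition of growth.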 The source made the active and inactive calls. No stated cut-off is given here; in the data, active = GI50 up to about 1.1 µM and inactive = higher.
What was measured:
Experiment in all cases: DTP human tumour cell line panel, 48 h
786-0 = test system: 786-0
ACHN = test system: ACHN
CAKI-1 = test system: CAKI-1
EKVX = test system: EKVX
HCC 2998 = test system: HCC 2998
HCT-116 = test system: HCT-116
HOP-92 = test system: HOP-92
K562 = test system: K562
M14 = test system: M14
MCF7 = test system: MCF7
MDA-MB-231 = test system: MDA-MB-231
MOLT-4 = test system: MOLT-4
Malme-3M = test system: Malme-3M
NCI-H460 = test system: NCI-H460
SK-MEL-5 = test system: SK-MEL-5
SN12C = test system: SN12C
SNB-75 = test system: SNB-75
SW-620 = test system: SW-620
U-251 = test system: U-251
UO-31 = test system: UO-31

Measured: GI50

CC1=Nn2c(nc3sc4c(c3c2=O)CCCC4)SC1
inactive: 786-0 > 81.3 µM | ACHN > 51.6 µM | CAKI-1 > 100 µM | EKVX > 69.5 µM | HCC 2998 99.5 µM | HCT-116 82 µM | HOP-92 36.1 µM | K562 39.9 µM | M14 > 100 µM | MCF7 > 77.6 µM | MDA-MB-231 > 50.4 µM | MOLT-4 44.2 µM | Malme-3M > 94.2 µM | NCI-H460 48.2 µM | SK-MEL-5 62.4 µM | SN12C > 78.5 µM | SNB-75 64.9 µM | SW-620 > 57.8 µM | U-251 45.5 µM | UO-31 37.8 µM

Cc1ccc(S(=O)(=O)Oc2cc(S(=O)(=O)O)cc3cc(S(=O)(=O)O)cc(N)c23)cc1
inactive: 786-0 > 100 µM | ACHN > 100 µM | CAKI-1 > 100 µM | EKVX > 100 µM | HCC 2998 > 100 µM | HCT-116 > 100 µM | HOP-92 22 µM | K562 > 100 µM | M14 > 100 µM | MCF7 > 100 µM | MDA-MB-231 > 100 µM | Malme-3M > 100 µM | NCI-H460 > 100 µM | SK-MEL-5 > 100 µM | SN12C > 100 µM | SNB-75 > 100 µM | SW-620 > 100 µM | U-251 > 100 µM | UO-31 41.1 µM

Cc1ccc(/N=C2\C(=N/c3ccc(C)cc3)N(c3ccc(C)cc3)C(=S)N2C(=O)c2ccccc2)cc1
inactive: 786-0 > 100 µM | ACHN > 100 µM | CAKI-1 > 100 µM | EKVX > 100 µM | HCC 2998 > 100 µM | HOP-92 > 100 µM | K562 > 100 µM | M14 > 100 µM | MCF7 > 100 µM | MDA-MB-231 > 100 µM | MOLT-4 > 100 µM | Malme-3M > 100 µM | NCI-H460 > 100 µM | SK-MEL-5 > 100 µM | SN12C > 100 µM | SNB-75 17.5 µM | SW-620 > 100 µM | U-251 > 100 µM | UO-31 > 100 µM

C[C@]12CC[C@H](O)CC1=CC[C@@H]1C2CC[C@]2(C)c3nn(-c4ccc(F)cc4)nc3CC12 (stereo partly drawn)
inactive: 786-0 45.3 µM | ACHN 33.1 µM | CAKI-1 > 100 µM | EKVX > 100 µM | HCC 2998 24 µM | HCT-116 67.3 µM | HOP-92 > 100 µM | K562 4.51 µM | M14 32.6 µM | MCF7 > 100 µM | MDA-MB-231 > 100 µM | MOLT-4 96.4 µM | Malme-3M 74 µM | NCI-H460 23.4 µM | SK-MEL-5 52.8 µM | SN12C 71 µM | SNB-75 28.6 µM | SW-620 > 100 µM | U-251 95.5 µM | UO-31 81.1 µM

Cc1cc(C)c2ccc(N3CCNCC3)nc2n1
inactive: 786-0 67.9 µM | ACHN > 100 µM | CAKI-1 > 100 µM | EKVX > 100 µM | HCC 2998 > 100 µM | HCT-116 84.1 µM | HOP-92 > 100 µM | K562 > 100 µM | M14 > 100 µM | MCF7 > 100 µM | MDA-MB-231 > 100 µM | MOLT-4 > 100 µM | Malme-3M > 100 µM | NCI-H460 > 100 µM | SN12C > 100 µM | SNB-75 > 100 µM | SW-620 > 100 µM | U-251 > 100 µM | UO-31 41.7 µM

C=CCCCCCCCCC(=O)ON(Cc1ccc(O)c(OC)c1)C(=O)C(F)(F)F
inactive: 786-0 > 100 µM | ACHN > 100 µM | EKVX > 100 µM | HCC 2998 > 100 µM | HCT-116 > 100 µM | HOP-92 34.2 µM | K562 75 µM | M14 > 100 µM | MCF7 > 100 µM | MDA-MB-231 > 100 µM | MOLT-4 31.3 µM | Malme-3M > 100 µM | NCI-H460 > 100 µM | SK-MEL-5 > 100 µM | SN12C > 100 µM | SNB-75 > 100 µM | SW-620 > 100 µM | U-251 > 100 µM | UO-31 10.9 µM

C(=N\N=C1NCCN1)/c1ccc2ccccc2c1
inactive: 786-0 12.8 µM | ACHN 16.5 µM | CAKI-1 9.02 µM | EKVX 12.6 µM | HCC 2998 12.7 µM | HCT-116 15.4 µM | K562 11.6 µM | MCF7 15.3 µM | MDA-MB-231 16.4 µM | MOLT-4 10.2 µM | Malme-3M 14.2 µM | NCI-H460 14.4 µM | SK-MEL-5 13.2 µM | SN12C 16.9 µM | SNB-75 29.5 µM | SW-620 16.3 µM | U-251 13.9 µM | UO-31 3.67 µM
active: HOP-92 0.174 µM

O=C(ON=C1c2ccccc2C(Br)C(Br)c2ccccc21)c1ccccc1 (stereo not drawn)
inactive: 786-0 9.62 µM | ACHN 17.7 µM | CAKI-1 9.48 µM | EKVX 23.1 µM | HCC 2998 21.8 µM | HCT-116 14.6 µM | HOP-92 1.17 µM | K562 2.95 µM | M14 17.3 µM | MCF7 14.9 µM | MDA-MB-231 16.7 µM | MOLT-4 2.04 µM | Malme-3M 20.7 µM | NCI-H460 13.4 µM | SK-MEL-5 17.1 µM | SN12C 20.7 µM | SNB-75 21.6 µM | SW-620 8.49 µM | U-251 17.7 µM | UO-31 3.79 µM

Cc1ccc(SCC(CF)OC(C)n2cnc3c(Cl)nc(N)nc32)cc1 (stereo not drawn)
inactive: 786-0 58.7 µM | ACHN 35.2 µM | CAKI-1 84.7 µM | HCC 2998 > 100 µM | HCT-116 55.1 µM | HOP-92 59.8 µM | M14 > 100 µM | MCF7 27.2 µM | MDA-MB-231 46.6 µM | MOLT-4 25.8 µM | Malme-3M 93.5 µM | NCI-H460 53 µM | SK-MEL-5 17.3 µM | SN12C 43.3 µM | SNB-75 > 100 µM | SW-620 > 100 µM | U-251 > 100 µM | UO-31 42.5 µM

COC(=O)c1c(OC(C)=O)ccc2c1c1c(OC(C)=O)c3ccccc3c(OC(C)=O)c1n2Cc1ccccc1
active: HOP-92 0.658 µM
inactive: 786-0 12.1 µM | ACHN 11.8 µM | CAKI-1 9.62 µM | EKVX 2.56 µM | HCC 2998 1.85 µM | HCT-116 3.96 µM | K562 5.33 µM | M14 2.93 µM | MCF7 13.5 µM | MDA-MB-231 4.09 µM | MOLT-4 7.46 µM | Malme-3M 7.8 µM | NCI-H460 2.24 µM | SK-MEL-5 3.02 µM | SN12C 10.5 µM | SNB-75 1.76 µM | U-251 2.43 µM | UO-31 2.21 µM

COc1cc2c(cc1OCCCC(=O)Nc1cc(C(=O)Nc3cc(C(=O)NCCCN(C)C)n(C)n3)n(C)n1)N=CC1CCCN1C2=O (stereo not drawn)
inactive: 786-0 16.3 µM | ACHN 16.2 µM | CAKI-1 16.8 µM | EKVX 34 µM | HCC 2998 17.3 µM | HCT-116 16 µM | HOP-92 19.1 µM | K562 14.6 µM | M14 16 µM | MCF7 12.6 µM | MDA-MB-231 20 µM | MOLT-4 4.79 µM | Malme-3M 17.2 µM | NCI-H460 14.4 µM | SK-MEL-5 15 µM | SN12C 16.1 µM | SW-620 15.2 µM | U-251 17 µM | UO-31 16.7 µM

Cc1cccc(C)c1N1C(=O)C2c3[nH]c4ccccc4c3C3CCC(C(C)(C)C)CC3C2C1=O (stereo not drawn)
inactive: 786-0 8.67 µM | ACHN 12.4 µM | CAKI-1 12.3 µM | EKVX 7.16 µM | HCC 2998 3.85 µM | HCT-116 9.25 µM | HOP-92 6.32 µM | K562 9.06 µM | M14 13.6 µM | MCF7 3.47 µM | MDA-MB-231 11.9 µM | MOLT-4 24.6 µM | Malme-3M 14.4 µM | NCI-H460 5.73 µM | SK-MEL-5 14.3 µM | SN12C 10.2 µM | SW-620 5.74 µM | U-251 16.8 µM | UO-31 10.8 µM

CC(/C=N/N(C)C1=NCCCN1)=N/N(C)C1=NCCCN1
inactive: 786-0 > 100 µM | ACHN > 100 µM | CAKI-1 > 100 µM | EKVX > 100 µM | HCC 2998 > 100 µM | HCT-116 > 100 µM | HOP-92 > 100 µM | K562 > 100 µM | MCF7 > 100 µM | MDA-MB-231 > 100 µM | MOLT-4 > 100 µM | Malme-3M > 100 µM | NCI-H460 > 100 µM | SK-MEL-5 > 100 µM | SN12C > 100 µM | SNB-75 > 100 µM | SW-620 > 100 µM | U-251 > 100 µM | UO-31 > 100 µM

C=C1C(=O)[C@]23C[C@H]1C[C@@H](O)[C@H]2[C@]1(COC3=O)[C@@H](OC(C)=O)CC[C@@](C)(COC(C)=O)[C@H]1C=O [LOXOTHYRIN A]
inactive: 786-0 36.4 µM | ACHN > 50 µM | CAKI-1 9.38 µM | EKVX > 50 µM | HCC 2998 > 50 µM | HCT-116 37 µM | HOP-92 10.2 µM | K562 6.97 µM | MCF7 17.8 µM | MDA-MB-231 > 50 µM | MOLT-4 9.04 µM | Malme-3M 11.4 µM | NCI-H460 > 50 µM | SK-MEL-5 > 50 µM | SN12C > 50 µM | SNB-75 > 50 µM | SW-620 9.29 µM | U-251 > 50 µM | UO-31 > 50 µM

Reference: ChEMBL document CHEMBL1201862, “PubChem BioAssay data set” (2004)
